Like-named read-outs stand apart in the source and are kept apart here.
Experiments:
human plasma kallikrein = human plasma kallikrein (Homo sapiens (Human), UniProt P03952); assay: Kallikrein inhibition assay (FLINT) utilizing a quenched AMC peptide substrate; type: biochemical; conditions: 30 min preincubation, kinetic reads over 30 min, Z-Gly-Pro-Arg-AMC substrate 50 μM; read-out: Kallikrein Kin Inh IC50
Summary of the method: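 Fluorogenic Z-Gly-Pro-Arg-AMC cleavage (50 μM substrate, 2 nM kallikrein, Tris pH 7.5, CaCl2, BSA, CHAPS, 2% DMSO) read kinetically at 340/440 nm for 30 min after 30-min compound pre-incubation. Compounds in 11-point 3-fold series from 1 μM; percent inhibition fitted to four-parameter equation for IC50.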

Factor XIa = Factor XIa (Homo sapiens (Human), UniProt P03951); assay: Factor XIa inhibition assay (FLINT) utilizing a fluorophore-quencher pair peptide substrate; type: biochemical; conditions: 30 min preincubation, kinetic reads over 30 min, read-out: FXIa Kin Inh IC50
Factor XIa, sequence (P03951 388-625): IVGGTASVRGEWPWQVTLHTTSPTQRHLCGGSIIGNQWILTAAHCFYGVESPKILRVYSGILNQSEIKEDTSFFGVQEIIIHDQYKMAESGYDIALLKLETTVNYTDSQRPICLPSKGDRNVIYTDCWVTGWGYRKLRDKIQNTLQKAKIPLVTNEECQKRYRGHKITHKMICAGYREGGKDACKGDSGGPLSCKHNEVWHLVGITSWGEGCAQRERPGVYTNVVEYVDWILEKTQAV
Factor XIa, sequence (P03951 19-387 partner): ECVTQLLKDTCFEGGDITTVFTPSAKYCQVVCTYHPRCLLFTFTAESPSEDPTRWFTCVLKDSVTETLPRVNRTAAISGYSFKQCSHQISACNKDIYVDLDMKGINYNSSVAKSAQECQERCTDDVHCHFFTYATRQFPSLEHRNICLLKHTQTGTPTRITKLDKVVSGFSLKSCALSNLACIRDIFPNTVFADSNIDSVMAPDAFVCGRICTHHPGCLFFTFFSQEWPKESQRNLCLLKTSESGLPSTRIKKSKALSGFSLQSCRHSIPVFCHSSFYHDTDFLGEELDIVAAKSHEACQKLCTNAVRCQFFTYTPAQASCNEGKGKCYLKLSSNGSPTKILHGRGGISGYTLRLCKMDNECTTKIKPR
Summary of the method: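 FXIa ([…]) preincubated 30 min with compound (11-point 3-fold dilution, top 100 nM, 2% DMSO), then 15 μM quenched FXI Arg146-based peptide added; Tris pH 7.5, CaCl2, BSA, CHAPS. Fluorescence 485/520 nm read kinetically every 5 min over 30 min at RT; IC50 by 4-parameter fit.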

[1] = 5Fam-KLTRAETV-K5Tamra substrate 15 μM
[2] = 5Fam-[…]-K5Tamra substrate 15 μM

human plasma kallikrein, sequence (P03952 391-638): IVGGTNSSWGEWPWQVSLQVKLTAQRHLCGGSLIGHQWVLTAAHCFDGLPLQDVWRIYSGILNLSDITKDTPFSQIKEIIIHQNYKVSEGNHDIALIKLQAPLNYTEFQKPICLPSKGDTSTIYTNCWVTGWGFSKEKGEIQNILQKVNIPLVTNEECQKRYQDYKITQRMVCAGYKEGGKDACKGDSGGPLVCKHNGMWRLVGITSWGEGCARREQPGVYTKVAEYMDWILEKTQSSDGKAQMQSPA
human plasma kallikrein, sequence (P03952 20-390 partner): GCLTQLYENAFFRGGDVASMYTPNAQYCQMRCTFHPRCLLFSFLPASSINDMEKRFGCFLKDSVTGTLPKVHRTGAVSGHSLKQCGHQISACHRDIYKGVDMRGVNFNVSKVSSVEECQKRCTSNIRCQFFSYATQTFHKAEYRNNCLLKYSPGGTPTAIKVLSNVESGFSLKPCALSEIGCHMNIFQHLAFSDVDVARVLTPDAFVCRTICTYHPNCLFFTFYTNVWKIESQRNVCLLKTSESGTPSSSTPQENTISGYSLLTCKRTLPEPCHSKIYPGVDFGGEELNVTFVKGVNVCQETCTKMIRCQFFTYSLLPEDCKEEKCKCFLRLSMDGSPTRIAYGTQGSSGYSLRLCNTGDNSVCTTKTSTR

| IC50 (human plasma kallikrein) | IC50 (Factor XIa; [1]) | IC50 (Factor XIa; [2]) | SMILES |
| --- | --- | --- | --- |
| 372 nM | 31 nM |  | Nc1ccc(-c2cnc([C@@H]3CC[C@@H]4CC(c5c(-n6cnnn6)ccc(Cl)c5F)=CC(=O)N43)[nH]2)c(C(F)(F)F)n1 [Example 167, (3S,8aR)-3-(5-(6-amino-2-(trifluoromethyl)pyridin-3-yl)-1H-imidazol-2-yl)-7-(3-chloro-2-fluoro-6-(1H-tetrazol-1-yl)phenyl)-2,3,8,8a-tetrahydroindolizin-5(1H)-one] |
| 4.5 nM | 0.6 nM |  | O=C(Nc1ccncc1-c1c[nH]c([C@@H]2CCC3CC(c4c(-n5cnnn5)ccc(Cl)c4F)=CC(=O)N32)n1)C1CC1 (stereo partly drawn) [Example 252, N-[3-[2-[(3S)-7-[3-Chloro-2-fluoro-6-(tetrazol-1-yl)phenyl]-5-oxo-2,3,8,8a-tetrahydro-1H-indolizin-3-yl]-1H-imidazol-4-yl]-4-pyridyl]cyclopropanecarboxamide] |
| 41.3 nM |  | 4.4 nM | C[C@@H](O)c1nccc(-c2[nH]c([C@@H]3CC[C@@H]4CC(c5cc(Cl)ccc5-n5cnnn5)=CC(=O)N43)nc2F)c1F (relative stereo) [Example 45, (3S,8aR)-7-(5-chloro-2-(1H-tetrazol-1-yl)phenyl)-3-(4-fluoro-5-(3-fluoro-2-((R*)-1-hydroxyethyl)pyridin-4-yl)-1H-imidazol-2-yl)-2,3,8,8a-tetrahydroindolizin-5(1H)-one] |
| 11.4 nM |  | 31.3 nM | Nc1ccnn1-c1cc(-c2cnc([C@H]3CC[C@@H]4CC(c5c(-n6cnnn6)ccc(Cl)c5F)=CC(=O)N43)[nH]2)ccn1 (single isomer, unassigned) [Example 49, (3R*,8aR)-3-(5-(2-(5-amino-1H-pyrazol-1-yl)pyridin-4-yl)-1H-imidazol-2-yl)-7-(3-chloro-2-fluoro-6-(1H-tetrazol-1-yl)phenyl)-2,3,8,8a-tetrahydroindolizin-5(1H)-one] |
| 17.8 nM | 8.3 nM |  | NC(=O)c1nccc(-c2cnc([C@@H]3CC[C@@H]4CC(c5c(-n6cnnn6)ccc(Cl)c5F)=CC(=O)N43)[nH]2)c1F [Example 181, 4-(2-((3S,8aR)-7-(3-chloro-2-fluoro-6-(1H-tetrazol-1-yl)phenyl)-5-oxo-1,2,3,5,8,8a-hexahydroindolizin-3-yl)-1H-imidazol-5-yl)-3-fluoropicolinamide] |
| 35.4 nM | 16.6 nM |  | O=C(NC12CC(C1)C2)c1nccc(-c2cnc([C@@H]3CC[C@@H]4CC(c5c(-n6cnnn6)ccc(Cl)c5F)=CC(=O)N43)[nH]2)c1F [Example 104, N-(bicyclo[1.1.1]pentan-1-yl)-4-(2-((3S,8aR)-7-(3-chloro-2-fluoro-6-(1H-tetrazol-1-yl)phenyl)-5-oxo-1,2,3,5,8,8a-hexahydroindolizin-3-yl)-1H-imidazol-5-yl)-3-fluoropicolinamide] |
| 465 nM | 82.1 nM |  | CC(=O)Nc1cc(-c2cnc([C@@H]3CCC4CC(c5c(-n6cnnn6)ccc(Cl)c5F)=CC(=O)N43)[nH]2)c(Cl)cn1 (stereo partly drawn) [Example 18, N-[5-Chloro-4 [2-[(3S)-7-[3-Chloro-2-fluoro-6-(tetrazol-1-yl)phenyl]-5-oxo-2,3,8,8a-tetrahydro-1H-indolizin-3-yl]-1H-imidazol-5-yl]-2-pyridyl]acetamide] |
| 11.1 nM | 0.4 nM |  | O=C1C=C(c2c(-n3cnnn3)ccc(Cl)c2F)C[C@H]2CC[C@@H](c3ncc(-c4c[nH]cc4C(F)(F)F)[nH]3)N12 [Example 230, (3S,8aR)-7-(3-Chloro-2-fluoro-6-(1H-tetrazol-1-yl)phenyl)-3-(5-(4-(trifluoromethyl)-1H-pyrrol-3-yl)-1H-imidazol-2-yl)-2,3,8,8a-tetrahydroindolizin-5(1H)-one] |
| 462 nM | > 100 nM |  | CNc1ncccc1-c1cnc([C@@H]2CCC3CC(c4c(-n5cnnn5)ccc(Cl)c4F)=CC(=O)N32)[nH]1 (stereo partly drawn) [Example 260, (3S)-7-[3-Chloro-2-fluoro-6-(tetrazol-1-yl)phenyl]-3-[4-[2-(methylamino)-3-pyridyl]-1H-imidazol-2-yl]-2,3,8,8a-tetrahydro-1H-indolizin-5-one] |
| 7.3 nM | 2.7 nM |  | O=C1C=C(c2c(-n3cc(C(F)(F)F)nn3)ccc(Cl)c2F)CC2CC[C@@H](c3ncc(-c4c[nH]c5ncncc45)[nH]3)N12 (stereo partly drawn) [Example 365, (3S)-3-(5-(7H-pyrrolo[2,3-d]pyrimidin-5-yl)-1H-imidazol-2-yl)-7-(3-chloro-2-fluoro-6-(4-(trifluoromethyl)-1H-1,2,3-triazol-1-yl)phenyl)-2,3,8,8a-tetrahydroindolizin-5(1H)-one] |
| 9 nM |  | 0.6 nM | CNc1ccc(-c2cnc([C@@H]3CC[C@@H]4CC(c5cc(Cl)ccc5-n5cnnn5)=CC(=O)N43)[nH]2)c(F)n1 (single isomer, unassigned) [Example 98, (3S*,8aR)-7-(5-chloro-2-(1H-tetrazol-1-yl)phenyl)-3-(5-(2-fluoro-6-(methylamino)pyridin-3-yl)-1H-imidazol-2-yl)-2,3,8,8a-tetrahydroindolizin-5(1H)-one] |
| 72.4 nM |  | 22.5 nM | [2H][C@@]12CC[C@@H](c3ncc(-c4ccnc(CO)c4F)[nH]3)N1C(=O)C=C(c1c(-n3cnnn3)ccc(Cl)c1F)C2 (relative stereo) [Example 48, (3S*,8aS)-7-(3-chloro-2-fluoro-6-(1H-tetrazol-1-yl)phenyl)-3-(5-(3-fluoro-2-(hydroxymethyl)pyridin-4-yl)-1H-imidazol-2-yl)-2,3,8,8a-tetrahydroindolizin-5(1H)-one-8a-d] |
| 5.4 nM |  | 0.4 nM | [2H]c1cc(Cl)c(F)c(C2=CC(=O)N3[C@H](CC[C@H]3c3nc([2H])c(-c4ccc(N)nc4F)[nH]3)C2)c1-n1cnnn1 [Example 129, (3S,8aR)-3-(5-(6-amino-2-fluoropyridin-3-yl)-1H-imidazol-2-yl-4-d)-7-(3-chloro-2-fluoro-6-(1H-tetrazol-1-yl)phenyl-5-d)-2,3,8,8a-tetrahydroindolizin-5(1H)-one] |
| 6.8 nM |  | 0.3 nM | Nc1ccc(-c2cnc([C@@H]3CC[C@@H]4CC(c5c(-n6cnnn6)ccc(Cl)c5F)=CC(=O)N43)[nH]2)c(F)n1 [Example 358, (3S,8aR)-3-[5-(6-amino-2-fluoro-3-pyridyl)-1H-imidazol-2-yl]-7-[3-chloro-2-fluoro-6-(tetrazol-1-yl)phenyl]-2,3,8,8a-tetrahydro-1H-indolizin-5-one] |
| 209 nM | 7.3 nM |  | Nc1ccc(-c2cnc([C@@H]3CC[C@@H]4CC(c5cc(Cl)ccc5-n5cnnn5)CC(=O)N43)[nH]2)c(F)n1 (stereo partly drawn) [Example 376, (3S,8aR)-3-(5-(6-amino-2-fluoropyridin-3-yl)-1H-imidazol-2-yl)-7-(5-chloro-2-(1H-tetrazol-1-yl)phenyl)hexahydroindolizin-5(1H)-one] |
| 33 nM | 2.4 nM |  | O=C1C=C(c2c(-n3cnnn3)ccc(Cl)c2F)C[C@H]2CC[C@@H](c3ncc(-c4ccnc(C[C@H](O)C(F)(F)F)c4F)[nH]3)N12 (single isomer, unassigned) [Example 143, (3S,8aR)-7-(3-chloro-2-fluoro-6-(1H-tetrazol-1-yl)phenyl)-3-(5-(3-fluoro-2-((*S)-3,3,3-trifluoro-2-hydroxypropyl)pyridin-4-yl)-1H-imidazol-2-yl)-2,3,8,8a-tetrahydroindolizin-5(1H)-one] |
| 22.2 nM | 5.4 nM |  | CC(C)(O)CCc1nccc(-c2cnc([C@@H]3CC[C@H]4CC(c5c(-n6cnnn6)ccc(Cl)c5F)=CC(=O)N43)[nH]2)c1F (single isomer, unassigned) [Example 159, (3*S,8a*S)-7-(3-chloro-2-fluoro-6-(1H-tetrazol-1-yl)phenyl)-3-(5-(3-fluoro-2-(3-hydroxy-3-methylbutyl)pyridin-4-yl)-1H-imidazol-2-yl)-2,3,8,8a-tetrahydroindolizin-5(1H)-one] |
| 6.5 nM | 3.8 nM |  | O=C1C=C(c2c(-n3cnnn3)ccc(Cl)c2F)C[C@H]2CC[C@@H](c3ncc(-c4ccc5[nH]ccc5c4)[nH]3)N12 [Example 14, (3S,8aR)-3-(5-(1H-indol-5-yl)-1H-imidazol-2-yl)-7-(3-chloro-2-fluoro-6-(1H-tetrazol-1-yl)phenyl)-2,3,8,8a-tetrahydroindolizin-5(1H)-one] |
| 20.6 nM | 9.6 nM |  | O=C1C=C(c2c(-n3cnnn3)ccc(Cl)c2F)C[C@H]2CC[C@H](c3ncc(-c4ccnc(-n5cncn5)c4F)[nH]3)N12 (single isomer, unassigned) [Example 112, (3*R,8aR)-7-(3-chloro-2-fluoro-6-(1H-tetrazol-1-yl)phenyl)-3-(5-(3-fluoro-2-(1H-1,2,4-triazol-1-yl)pyridin-4-yl)-1H-imidazol-2-yl)-2,3,8,8a-tetrahydroindolizin-5(1H)-one] |
| 64.4 nM | 8.3 nM |  | O=C1C=C(c2c(-n3cnnn3)ccc(Cl)c2F)C[C@H]2CC[C@H](c3ncc(-c4ccnc(C5(O)CC5)c4F)[nH]3)N12 (single isomer, unassigned) [Example 116, (3*R,8aR)-7-(3-chloro-2-fluoro-6-(1H-tetrazol-1-yl)phenyl)-3-(5-(3-fluoro-2-(1-hydroxycyclopropyl)pyridin-4-yl)-1H-imidazol-2-yl-4-d)-2,3,8,8a-tetrahydroindolizin-5(1H)-one] |

— patent publication US20230295157A1, “3-(1H-IMIDAZOL-2-YL)-2,3,8,8A-TETRAHYDROINDOLIZIN-5(1H)-ONE DERIVATIVES USEFUL AS FACTOR XIA INHIBITORS” (JANSSEN PHARMACEUTICA NV, priority 2020, published 2023)
